In patent US5681833A, “Benzodiazepine derivatives” (Merck, Sharp & Dohme Ltd., priority 1992, dated 1997):

Assays:
CCK receptor (pancreas) = target: T1, CCK receptor (pancreas) (Rattus norvegicus, UniProt P30551); assay: CCK Receptor Binding (Pancreas), inhibition of specific 125I-CCK-8 binding; set-up: species or system rat (male Sprague-Dawley); settings: rat pancreas membranes; 50 pM 125I-CCK-8; 25° C., 2 hours; pH 6.5; read-out: IC50 125I-CCK Pancreas
T1 construct: The whole pancreas was dissected free of fat tissue and was homogenized; from tissue; host or cells: whole pancreas of male Sprague-Dawley rats, homogenate membranes
T1 sequence (P30551 1-444): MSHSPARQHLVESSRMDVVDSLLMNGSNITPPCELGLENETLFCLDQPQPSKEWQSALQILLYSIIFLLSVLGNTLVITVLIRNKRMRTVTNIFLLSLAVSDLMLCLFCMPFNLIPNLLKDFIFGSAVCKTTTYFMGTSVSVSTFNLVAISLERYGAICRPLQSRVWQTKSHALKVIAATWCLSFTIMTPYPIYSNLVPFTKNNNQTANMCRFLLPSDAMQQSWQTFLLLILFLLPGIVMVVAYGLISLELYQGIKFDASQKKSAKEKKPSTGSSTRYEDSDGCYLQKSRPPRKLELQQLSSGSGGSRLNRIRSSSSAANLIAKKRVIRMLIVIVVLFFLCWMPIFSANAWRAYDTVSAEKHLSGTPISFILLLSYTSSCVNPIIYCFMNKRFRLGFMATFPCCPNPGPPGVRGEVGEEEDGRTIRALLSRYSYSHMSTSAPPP
Protocol: 1. CCK Receptor Binding (Pancreas)
CCK-8 sulphated was radiolabelled with ^125 I-Bolton Hunter reagent (2000 Ci/mmole). Receptor binding was performed according to Chang and Lotti (Proc. Natl. Acad. Sci. 83, 4923-4926, 1986) with minor modifications.
Male Sprague-Dawley rats (150-200 g) were sacrificed by decapitation. The whole pancreas was dissected free of fat tissue and was homogenized in 25 volumes of ice-cold 10 mM N-2-hydroxyethyl-piperazine-N'-2-ethane sulphonic acid (HEPES) buffer with 0.1% soya bean trypsin inhibitor (pH 7.4 at 25° C.) with a Kinematica Polytron. The homogenates were centrifuged at 47,800 g for 10 min. Pellets were resuspended in 10 volumes of binding assay buffer (20 mM (HEPES)), 1 mM ethylene glycol-bis-(β-aminoethylether-N,N'-tetraacetic acid) (EGTA), 5 mM MgCl2, 150 mM NaCl, bacitracin 0.25 mg/ml, soya bean trypsin inhibitor 0.1 mg/ml, and bovine serum albumin 2 mg/ml pH 6.5 at 25° C.) using a Teflon (trademark) homogenizer, 15 strokes at 500 rpm. The homogenate was further diluted in binding assay buffer to give a final concentration of 0.5 mg original wet weight/1 ml buffer. […] All assays were run in duplicate. The reaction mixtures were incubated at 25° C. for 2 hours and the reaction terminated by rapid filtration (Brandell 24 well cell harvester) over Whatman GF/C filters, washing 3×4 mls with ice-cold 100 Mm NaCl. The radioactivity on the filters was counted with a LKB gamma counter.

CCK receptor (brain) = target: T2, CCK receptor (brain) (Cavia porcellus, UniProt H0VZC5); assay: CCK Receptor Binding (Brain), inhibition of specific 125I-CCK-8 binding; set-up: species or system guinea pig (male Hartley); settings: guinea pig cortex membranes; 50 pM 125I-CCK-8; 25° C., 2 hours; pH 6.5; read-out: IC50 125I-CCK Brain
T2 construct: the cortex was removed and homogenized in 25 mL ice-cold 0.32M sucrose; from tissue; host or cells: cortex of male Hartley guinea pigs, P2 membranes
T2 sequence (H0VZC5 1-426): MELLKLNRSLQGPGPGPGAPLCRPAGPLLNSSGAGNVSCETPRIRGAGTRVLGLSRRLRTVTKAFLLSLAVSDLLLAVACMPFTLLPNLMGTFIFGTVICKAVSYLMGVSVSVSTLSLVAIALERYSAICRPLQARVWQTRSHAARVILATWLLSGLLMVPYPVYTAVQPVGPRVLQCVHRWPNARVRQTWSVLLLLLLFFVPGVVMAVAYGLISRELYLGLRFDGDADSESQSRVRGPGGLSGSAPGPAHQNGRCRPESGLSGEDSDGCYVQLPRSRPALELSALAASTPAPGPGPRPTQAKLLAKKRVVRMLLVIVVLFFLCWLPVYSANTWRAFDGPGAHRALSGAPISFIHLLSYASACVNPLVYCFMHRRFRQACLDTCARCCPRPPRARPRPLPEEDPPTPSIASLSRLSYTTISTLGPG
Protocol: 2. CCK Receptor Binding (Brain)
CCK-8 sulphated was radiolabelled and the binding was performed according to the description for the pancreas method with minor modifications.
Male Hartley guinea pigs (300-500 g) were sacrificed by decapitation and the cortex was removed and homogenized in 25 mL ice-cold 0.32M sucrose. The homogenates were centrifuged at 1000 g for 10 minutes and the resulting supernatant was recentrifuged at 20,000 g for 20 minutes. The P2 pellet was resuspended in binding assay buffer (20mM HEPES, 5 mM MgCl2, 0.25 mg/ml bacitracin, 1 mM EGTA pH 6.5 at 25° C.), using a Teflon (trademark) homogenizer (5 strokes at 500 rpm) to give a final concentration of 10 mg original wet weight/1.2 ml buffer. […] All assays were run in duplicate. The reaction mixtures were incubated at 25° C. for 2 hours and then the reaction was terminated by rapid filtration (Brandell 24 well cell harvester) on Whatman GF/C filters with 3×5 ml washes of cold 100 mM NaCl. The radioactivity on the filters was counted with a LKB gamma counter.

CN1C(=O)[C@H](NC(=O)Nc2cccc(Nc3nnn[nH]3)c2)N=C(C2CCCCC2)c2ccccc21 [Example 5, (+)-N-[3(R)-5-Cyclohexyl-2,3-dihydro-1-methyl-2-oxo-1H-1,4-benzodiazepin-3-yl]-N'-[3-{(tetrazol-5-yl)amino}phenyl]urea]
IC50 (CCK receptor (pancreas)): 200 nM
IC50 (CCK receptor (brain)): 0.7 nM
